Experimental data published in US12653191B2, “Active compound combinations” (Bayer Aktiengesellschaft, priority 2020, dated 2026).

Experiments:
[1] = Log P by HPLC on reversed phase columns (LC-UV), method [a]: acidic range, 0.1% formic acid in water / acetonitrile; assay type: physicochemical; settings: method [a]: HPLC on reversed phase column, acidic range, 0.1% formic acid in water / acetonitrile
Procedure: Measurement of Log P Values
Measurement of Log P values as provided herein was performed according to EEC directive 79/831 Annex V.A8 by HPLC (High Performance Liquid Chromatography) on reversed phase columns with the following methods: • ^[a]
If more than one Log P value is available within the same method, all the values are given and separated by “+”.

Alternaria alternate = experiment: in vitro-Test with fungal microorganisms, Method A (tables A1-A12); assay type: cell-based, Alternaria alternata; settings: applied alone
In short: (§1)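 Methanol/emulsifier compound solution evaporated in well; liquid potato dextrose medium + spore or mycelium suspension added; 20° C, 85% RH, 3-5 d; photometric read 620 nm; % efficacy vs untreated.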

Cercospora beticola = experiment: in vitro-Test with fungal microorganisms, Method A (tables C1-C10); assay type: cell-based; settings: Cercospora beticola, read-out: Efficacy %
In short: as §1

Diaporthe citri = experiment: in vitro-Test with fungal microorganisms, Method A (tables F1-F11); assay type: cell-based; settings: applied alone
In short: as §1

Fusarium culmorum = experiment: in vitro-Test with fungal microorganisms, Method A (tables G1-G4); assay type: cell-based; settings: alone
In short: as §1

[2] = tested on: Ustilago segetum var. avenae; experiment: in vitro-Test with fungal microorganisms, Method A (tables I1-I5); assay type: cell-based; settings: alone, read-out: Efficacy %
In short: as §1

## Cc1ccc(CC2CON=C(c3cc(C)nnc3Oc3cccc(Cl)c3F)N2)c(Cl)c1 (racemic) [Compound I-302, rac-3-[3-(3-chloro-2-fluorophenoxy)-6-methylpyridazin-4-yl]-5-[(2-chloro-4-methylphenyl)methyl]-5,6-dihydro-4H-1,2,4-oxadiazine]
[1]
  chromatographic logP: 3.94
Alternaria alternate; Alternaria, 0.0008 ppm, read-out: Efficacy %
  inhibition of growth at 0.0008 ppm: 9%
Alternaria alternate; Alternaria, 0.004 ppm, read-out: Efficacy %
  inhibition of growth at 0.004 ppm: 6%
Alternaria alternate; Alternaria, 0.02 ppm, read-out: Efficacy %
  inhibition of growth at 0.02 ppm: 36%
Alternaria alternate; Alternaria, 0.1 ppm, read-out: Efficacy %
  inhibition of growth at 0.1 ppm: 100%
Alternaria alternate; 0.004 ppm
  Efficacy %: 6%
Cercospora beticola; 0.0008 ppm
  inhibition of growth at 0.0008 ppm: 0%
Cercospora beticola; 0.004 ppm
  inhibition of growth at 0.004 ppm: 0%
Cercospora beticola; 0.02 ppm
  inhibition of growth at 0.02 ppm: 31%
Cercospora beticola; 0.1 ppm
  inhibition of growth at 0.1 ppm: 35%
Diaporthe citri; Diaporthe citri, 0.0008 ppm, read-out: Efficacy
  inhibition of growth at 0.0008 ppm: 0%
Diaporthe citri; Diaporthe citri, 0.004 ppm, read-out: Efficacy
  inhibition of growth at 0.004 ppm: 1%
Diaporthe citri; Diaporthe citri, 0.02 ppm, read-out: Efficacy
  inhibition of growth at 0.02 ppm: 0%
Diaporthe citri; Diaporthe citri, 0.1 ppm, read-out: Efficacy
  inhibition of growth at 0.1 ppm: 20%
Diaporthe citri; 0.004 ppm
  Efficacy: 1%
Fusarium culmorum; 0.004 ppm
  Efficacy: 4%
Fusarium culmorum; Fusarium culmorum, 0.0008 ppm, read-out: Efficacy
  inhibition of growth at 0.0008 ppm: 7%
Fusarium culmorum; Fusarium culmorum, 0.004 ppm, read-out: Efficacy
  inhibition of growth at 0.004 ppm: 4%
Fusarium culmorum; Fusarium culmorum, 0.02 ppm, read-out: Efficacy
  inhibition of growth at 0.02 ppm: 2%
Fusarium culmorum; Fusarium culmorum, 0.1 ppm, read-out: Efficacy
  inhibition of growth at 0.1 ppm: 0%
[2]; 0.0008 ppm
  inhibition of growth at 0.0008 ppm: 0%
[2]; 0.004 ppm
  inhibition of growth at 0.004 ppm: 0%
[2]; 0.02 ppm
  inhibition of growth at 0.02 ppm: 0%
[2]; 0.1 ppm
  inhibition of growth at 0.1 ppm: 0%
